In patent publication US9187496B2 (priority 2009, dated 2015):
Like-named read-outs stand apart in the source and are kept apart here.

Assays:
[1] = test system: HCV genotype 4a-specific NS5A gene within the 1b-replicon; assay: Luciferase replicon assay, NS5A-intergenotypic stable cell line genotype 4a; assay type: cell-based; settings: Hepatitis C virus, read-out: EC50 4a
From the text: (§1) The nucleotide sequences of the NS5A region of genotype 2a (GenBank Accession #AB047639), genotype 3a (GenBank Accession #D17763), and genotype 4a (GenBank Accession#DQ418788) were synthesized by an outside vendor. The NS5A region of each of these genotypes included the first 11 amino acids of the protease recognition sequence of genotype 1b, as well as the last 10 amino acids of genotype 1b. The NS5A gene cassettes were excised with site specific restriction endonucleases and ligated into a ZS11-luciferase genotype 1b backbone (backbone contains the genotype 1b NS3 protease, NS4a, NS4b, and NS5b coding regions) with similarly cut restriction enzyme sites. Thus, the newly constructed plasmid contains a genotype 2a-, 3a- or 4a-specific NS5A gene within the 1b-replicon.
(§2) These new intergenotypic plasmids were used to establish stable cell lines. RNA was generated from the NS5A intergenotypic plasmids and used in conjunction with a lipofectin reagent to transfect a cured Huh7 cell line. Transfected cells were selected for with G418. After selection has occurred the stable cell lines were propagated, tested for luciferase activity, and RT-PCR with genotype specific primers (either 1a, 2a, 3a, or 4a). Stable cell lines containing the intergenotypic replicon were then fully sequenced and analysed for proper expression of NS3, NS5A and NS5B proteins.
(§3) Drug titration analysis was performed using the luciferase replicon assay described herein.
(§4) The HCV luciferase replicon assay measures the ability of a test compound to inhibit HCV replication in cell culture after 3 days of treatment in a human hepatoma cell line (Huh-7) bearing a HCV replicon containing a luciferase-neomycin phosphotransferase fusion gene. The inhibition of HCV replication was measured by quantification of luciferase protein expression. Briefly, Huh-7 cells containing either the HCV genotype 1a H77 strain or genotype 1b Conl strain subgenomic luciferase replicon (H1a-luc or Zluc, respectively) were grown in DMEM containing glucose, L-glutamine and sodium pyruvate, 10% fetal bovine serum (FBS), 100 IU/mL penicillin, 100 μg/mL streptomycin, 2 mM GlutaMAX, non-essential amino acids and 0.25 (H1a-luc) or 0.5 (Zluc) mg/mL G418. GlutaMAX was obtained from Invitrogen, Corp.; all other media reagents were obtained from Mediatech, Inc. For dose-response testing, the cells were seeded in 96-well plates at 1×10^4 (H1a-luc) or 7.5×10^3 (Zluc) cells/well in a volume of 50 μL, and incubated at 37° C./5% CO2. Three hours after plating, 50 μL of ten 5-fold serial dilutions of compound were added, and cell cultures were incubated at 37° C./5% CO2 for 72 hours. In all cases, Huh-7 cells lacking the HCV replicon served as negative control. To assess luciferase expression, the media/compound was removed from the plates and ONE-glo Luciferase assay reagent (Promega) was added to each well. The assay plates were shaken for 3 minutes at room temperature and luciferase activity for each well was measured with a 1 sec read time on the Victor^3V multilabel counter using a 700 nm cut-off filter (Perkin Elmer). EC50 values were calculated from dose response curves from the resulting best-fit equations determined by Microsoft Excel and XLfit 4.1 software.

[2] = test system: HCV genotype 2a-specific NS5A gene within the 1b-replicon; assay: Luciferase replicon assay, NS5A-intergenotypic stable cell line genotype 2a; assay type: cell-based; settings: Hepatitis C virus, read-out: EC50 2a
From the text: as §1, §2, §3, §4

[3] = test system: HCV genotype 1b Conl strain subgenomic luciferase replicon (Zluc); assay: Luciferase replicon assay, genotype 1b; assay type: cell-based; settings: Hepatitis C virus, 72 h, read-out: EC50 1b
Method: as §4

[4] = Cytotoxicity evaluation in luciferase replicon cells (Cell Titer 96 AQueous One); assay type: cell-based, human; settings: human; Table 1B, cellular viability
Method: For cytotoxicity evaluation, H1a-luc or Zluc cells were treated with compounds as described above and cellular viability was monitored using the Cell Titer 96 AQueous One Solution Cell Proliferation Assay (Promega). Plates were then read at 490 nm in a Victor^3V 1420 multilabel counter (Perkin Elmer) and CC50 concentrations were determined using Microsoft Excel and XLfit 4.1 software.

[5] = test system: HCV genotype 3a-specific NS5A gene within the 1b-replicon; assay: Luciferase replicon assay, NS5A-intergenotypic stable cell line genotype 3a; assay type: cell-based; settings: Hepatitis C virus, read-out: EC50 3a
From the text: as §1, §2, §3, §4

GS4.1 cells = assay: Cytotoxicity evaluation in GS4.1 cells (Cell Titer 96 AQueous One); assay type: cell-based, human; settings: cellular viability
Method: For cytotoxicity evaluation, GS4.1 cells were treated with compounds as described above and cellular viability was monitored using the Cell Titer 96 AQueous One Solution Cell Proliferation Assay (Promega). CC50 values were determined from the % cytotoxicity versus concentration data with Tecan Magellan software as described above.

[6] = test system: Huh-7 cells containing HCV Con1 subgenomic replicon (GS4.1 cells); assay: HCV replicon assay (NS5A ELISA); assay type: cell-based
Method: General Procedure: Huh-7 cells containing HCV Con1 subgenomic replicon (GS4.1 cells) were grown in Dulbecco's Modified Eagle Medium (DMEM) supplemented with 10% fetal bovine serum (FBS), 2 mM L-glutamine, 110 mg/L sodium pyruvate, 1× non-essential amino acids, 100 U/mL penicillin-streptomycin, and 0.5 mg/mL G418 (Invitrogen). For dose-response testing, the cells were seeded in 96-well plates at 7.5×10^3 cells/well in a volume of 50 μL, and incubated at 37° C./5% CO2. Three hours after plating, 50 μL of ten 2-fold serial dilutions of compounds (highest concentration, 75 μM) were added, and cell cultures were incubated at 37° C./5% CO2 in the presence of 0.5% DMSO. Alternatively, compounds were tested at a single concentration of 15 μM. In all cases, Huh-7 cells lacking the HCV replicon served as negative control. The cells were incubated in the presence of compounds for 72 hrs after which they were monitored for expression of the NS5A protein by enzyme-linked immunosorbent assay (ELISA). For this, the plates were then fixed for 1 min with acetone/methanol (1:1, v/v), washed twice with phosphate-buffered saline (PBS), 0.1% Tween 20, blocked for 1 hr at room temperature with TNE buffer containing 10% FBS and then incubated for 2 hr at 37° C. with the anti-NS5A mouse monoclonal antibody A-236 (ViroGen) diluted in the same buffer. After washing three times with PBS, 0.1% Tween 20, the cells were incubated 1 hr at 37° C. with anti-mouse immunoglobulin G-peroxidase conjugate in TNE, 10% FBS. After washing as described above, the reaction was developed with O-phenylenediamine (Zymed). The reaction was stopped after 30 min with 2 N H2SO4, and absorbance was read at 492 nm using Sunrise Tecan spectrophotometer. EC50 values were determined from the % inhibition versus concentration data using a sigmoidal non-linear regression analysis based on four parameters with Tecan Magellan software.

[7] = Hepatitis C virus, Huh-7, GS4.1 cells, 72 hrs, NS5A ELISA, read-out: EC50

Compound | CC50 (GS4.1 cells) [nM] | EC50 [6, 7] [nM] | further results
COC(=O)N[C@H](C(=O)N1CCC[C@H]1c1ncc(-c2ccc(-c3csc4c(-c5ccc6[nH]c([C@@H]7CCCN7C(=O)[C@H](NC(=O)OC)c7ccccc7)nc6c5)csc34)cc2)[nH]1)C(C)C [Compound A172, [(S)-1-((S)-2-{5-[4-(6-{(S)-2-[1-((R)-2-methoxycarbonylamino-2-phenyl-acetyl)-pyrrolidin-2-yl]-3H-benzoimidazol-5-yl}-thieno[3,2-b]thiophen-3-yl)-phenyl]-1H-imidazol-2-yl}-pyrrolidine-1-carbonyl)-2-methyl-propyl]-carbamic acid methyl ester] |  |  | EC50 [1]: < 0.1 nM; EC50 [2]: < 0.1 nM; EC50 [3]: < 0.1 nM; CC50 at 72 h [4]: > 75000 nM; EC50 [5]: < 0.1 nM
COC(=O)N[C@H](C(=O)N1CCC[C@H]1c1ncc(-c2ccc(-c3csc4c(-c5ccc6[nH]c([C@@H]7CCCN7C(=O)[C@@H](NC(=O)OC)C(C)C)nc6c5)csc34)cc2)[nH]1)C(C)C [Compound A171, [(S)-1-((S)-2-{4-[4-(6-{2-[(S)-1-((S)-2-methoxycarbonylamino-3-methyl-butyryl)-pyrrolidin-2-yl]-3H-benzoimidazol-5-yl}-thieno[3,2-b]thiophen-3-yl)-phenyl]-1H-imidazol-2-yl}-pyrrolidine-1-carbonyl)-2-methyl-propyl]-carbamic acid methyl ester] |  |  | EC50 [1]: < 0.1 nM; EC50 [2]: 0.1 to 1 nM; EC50 [3]: < 0.1 nM; CC50 at 72 h [4]: > 75000 nM; EC50 [5]: 1 to 10 nM
COC(=O)N[C@H](C(=O)N1CCC[C@H]1c1nc2cc(-c3csc4c(-c5ccc(-c6cnc([C@@H]7CCCN7C(=O)[C@H](NC(=O)OC)c7ccccc7)[nH]6)cc5)csc34)ccc2[nH]1)C(C)C [Compound A169, [(S)-1-((S)-2-{6-[6-(4-{(S)-2-[1-((R)-2-methoxycarbonylamino-2-phenyl-acetyl)-pyrrolidin-2-yl]-3H-imidazol-4-yl}-phenyl)-thieno[3,2-b]thiophen-3-yl]-1H-benzoimidazol-2-yl}-pyrrolidine-1-carbonyl)-2-methyl-propyl]-carbamic acid methyl ester] |  |  | EC50 [1]: < 0.1 nM; EC50 [2]: < 0.1 nM; EC50 [3]: < 0.1 nM; CC50 at 72 h [4]: > 75000 nM; EC50 [5]: < 0.1 nM
COC(=O)N[C@H](C(=O)N1CCCC1c1nc(-c2cc3sc(-c4cnc([C@@H]5CCCN5C(=O)[C@@H](NC(=O)OC)C(C)C)[nH]4)cc3s2)c[nH]1)C(C)C (stereo partly drawn) [Compound A101] |  |  | EC50 [1]: 1 to 10 nM; EC50 [2]: 1 to 10 nM; EC50 [3]: < 0.1 nM; CC50 at 72 h [4]: > 75000 nM; EC50 [5]: 1 to 10 nM
COC(=O)N[C@H](C(=O)N1CCCC1c1nc(-c2ccc(-c3sc4cc(-c5ccc(-c6cnc([C@@H]7CCCN7C(=O)[C@@H](NC(=O)OC)C(C)C)[nH]6)cc5)sc4c3-c3ccc(-c4cnc(C5CCCN5C(=O)[C@@H](NC(=O)OC)C(C)C)[nH]4)cc3)cc2)c[nH]1)C(C)C (stereo partly drawn) [A105] | 10000 to 75000 |  | EC50 ([6]; Hepatitis C virus, Huh-7, 72 h): 10 to 100 nM
COC(=O)N[C@H](C(=O)N1CCC[C@H]1C(=O)Nc1ccc(-c2cn3cc(NC(=O)C4CCCN4C(=O)[C@@H](NC(=O)OC)C(C)C)nc3s2)cc1)c1ccccc1 (stereo partly drawn) [A32] | > 75000 | < 1 | 
COC(=O)N[C@H](C(=O)N1CCC[C@H]1c1ncc(-c2ccc(-c3cn4cc(NC(=O)[C@@H]5CCCN5)nc4s3)cc2)[nH]1)C(C)C [A150] | 10000 to 75000 |  | EC50 ([6]; GS4.1 cells, 72 hrs, NS5A ELISA, read-out: EC50): 10 to 100 nM
COC(=O)N[C@H](C(=O)N1CCCC1c1ncc(-c2ccc(-n3ccc4c(-c5cnc(C6CCCN6C(=O)[C@@H](NC(=O)OC)C(C)C)[nH]5)csc43)c(Cl)c2)[nH]1)C(C)C (stereo partly drawn) [Compound A213] |  |  | EC50 [3]: < 0.1 nM; CC50 at 72 h [4]: 10000 to 75000 nM
COC(=O)N[C@H](C(=O)N1CCCC1c1cc(-c2ccc(-c3csc4c(-c5ccc(-c6cnc(C7CCCN7C(=O)[C@@H](NC(=O)OC)C(C)C)[nH]6)cc5)csc34)cc2)[nH]n1)C(C)C (stereo partly drawn) [A87] | > 75000 | < 1 | 
COC(=O)N[C@H](C(=O)N1CCCC1c1nc(-c2ccc(-c3c(C(=O)OC)[nH]c4c(-c5ccc(-c6cnc(C7CCCN7C(=O)[C@@H](NC(=O)OC)C(C)C)[nH]6)cc5)csc34)cc2)c[nH]1)C(C)C (stereo partly drawn) [Compound A163] | > 75000 | < 1 | 
COC(=O)N[C@H](C(=O)N1CCC[C@H]1c1ncc(-c2ccc(-c3cn4cc(-c5cnc(C6CCCN6C(=O)[C@@H](NC(=O)OC(C)(C)C)c6ccccc6)[nH]5)nc4s3)cc2)[nH]1)C(C)C (stereo partly drawn) [A33] | > 75000 | < 1 | 
CC(C)(C)OC(=O)Nc1ccc(-c2cn3cc(NC(=O)[C@@H]4CCCN4C(=O)[C@H](NC(=O)OC(C)(C)C)c4ccccc4)nc3s2)cc1 [A29] | 10000 to 75000 | > 100 | 
CC(C)(C)OC(=O)N[C@@H](C(=O)N1CCOC[C@H]1C(=O)Nc1cn2cc(-c3ccccc3)sc2n1)c1ccccc1 [Compound A22] | > 75000 | > 100 | 
COC(=O)N[C@H](C(=O)N1CCCC1c1ncc(-c2cc3sc(-c4ncc(-c5c[nH]c([C@@H]6CCCN6C(=O)[C@@H](NC(=O)OC)C(C)C)n5)s4)cc3s2)[nH]1)C(C)C (stereo partly drawn) [A130] | > 75000 | < 1 | 
COC(=O)N[C@H](C(=O)N1CCC[C@H]1C(=O)Nc1cn2cc(-c3ccc(NC(=O)CNC(=O)[C@H](NC(=O)OC(C)(C)C)c4ccccc4)cc3)sc2n1)C(C)C [A147] | > 75000 | 10 to 100 | 
COC(=O)N[C@H](C(=O)N1CCC[C@H]1c1cc(-c2ccc(-c3cn4cc(NC(=O)[C@@H]5CCCN5C(=O)[C@H](NC(=O)OC(C)C)c5ccccc5)nc4s3)cc2)[nH]n1)C(C)C [A156] | > 75000 | < 1 | 
COC(=O)N[C@H](C(=O)N1CCCC1c1ncc(-c2ccc(-c3cn4ccsc4n3)cc2)[nH]1)C(C)C (stereo partly drawn) [A160] | > 75000 | 10 to 100 | 
COC(=O)N[C@H](C(=O)N1CCCC1c1ncc(-c2ccc(-c3ccc(-c4nc5sccn5c4Cl)cc3)cc2)[nH]1)C(C)C (stereo partly drawn) [A154] | 10000 to 75000 | 10 to 100 | 
